Results published in patent US12201633B2, “Compounds and methods for treatment of visceral pain” (Arena Pharmaceuticals, Inc., priority 2017, dated 2025).
pEC50: −log10 of the molar value.

Tests used:
[1] = biological target: T1, human CB2 receptor (Homo sapiens, UniProt P34972); assay: PathHunter β-arrestin assay, CB2
[2] = biological target: T1, human CB2 receptor; assay: HTRF assay for direct cAMP measurement, CB2; assay type: cell-based; parameters: 93-0164 (CHO-K1 EA-Arrestin parental line); host or cells: CHO-K1 EA-Arrestin, clone #61
[3] = read-out: EC50 hCB2, β-arrestin, CHO-K1 cells, Table B-2

T1 sequence (P34972 whole entry): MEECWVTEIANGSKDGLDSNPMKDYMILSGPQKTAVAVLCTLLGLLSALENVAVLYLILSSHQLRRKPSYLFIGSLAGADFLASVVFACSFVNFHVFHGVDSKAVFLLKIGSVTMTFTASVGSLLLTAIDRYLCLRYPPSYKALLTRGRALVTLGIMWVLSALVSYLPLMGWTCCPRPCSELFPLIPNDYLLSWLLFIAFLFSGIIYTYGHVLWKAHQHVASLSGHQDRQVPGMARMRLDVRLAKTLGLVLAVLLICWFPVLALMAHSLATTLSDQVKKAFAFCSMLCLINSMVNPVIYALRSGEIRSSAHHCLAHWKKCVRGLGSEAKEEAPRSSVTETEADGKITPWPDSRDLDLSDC

O=C(NC1(CO)CC1)c1nn(-c2ccc(Cl)cc2Cl)c2c1C[C@H]1C[C@@H]21 [Compound 174, (1aR,5aR)-2-(2,4-Dichloro-phenyl)-1a,2,5,5a-tetrahydro-1H-2,3-diaza-cyclopropa[a]pentalene-4-carboxylic acid (1-hydroxymethyl-cyclopropyl)-amide]
pEC50 [1]: 6.78 | pEC50 [2]: 7.42

CC(C)(C)[C@@H](COP(=O)(O)O)NC(=O)c1nn(-c2c[n+]([O-])ccn2)c2c1C[C@H]1C[C@@H]21 [Compound 703, Phosphoric acid mono-((S)-3,3-dimethyl-2-{[(1aR,5aR)-2-(4-oxy-pyrazin-2-yl)-1a,2,5,5a-tetrahydro-1H-2,3-diaza-cyclopropa[a]pentalene-4-carbonyl]-amino}-butyl) ester]
pEC50 [1]: 6.22

CC(C)[C@@H](CO)NC(=O)c1nn(-c2c[n+]([O-])ccn2)c2c1C[C@H]1C[C@@H]21 [Compound 690, (1aR,5aR)-2-(4-Oxy-pyrazin-2-yl)-1a,2,5,5a-tetrahydro-1H-2,3-diaza-cyclopropa[a]pentalene-4-carboxylic acid ((S)-1-hydroxymethyl-2-methyl-propyl)-amide]
pEC50 [1]: 7.51 | pEC50 [2]: 8.75

O=C(NC1(C(F)(F)F)CCC1)c1nn(-c2c[n+]([O-])ccn2)c2c1C[C@@H]1C[C@H]21 [Compound 765, (1aS,5aS)-2-(4-Oxy-pyrazin-2-yl)-1a,2,5,5a-tetrahydro-1H-2,3-diaza-cyclopropa[a]pentalene-4-carboxylic acid (1-trifluoromethyl-cyclobutyl)-amide]
pEC50 [1]: 8.94 | pEC50 [2]: 10.00

CC(C)(C)[C@@H](CO)NC(=O)c1nn(-c2cnccn2)c2c1C[C@@H]1C[C@H]21 [Compound 696, (1aS,5aS)-2-Pyrazin-2-yl-1a,2,5,5a-tetrahydro-1H-2,3-diaza-cyclopropa[a]pentalene-4-carboxylic acid ((S)-1-hydroxymethyl-2,2-dimethyl-propyl)-amide]
pEC50 [1]: 7.31 | pEC50 [2]: 8.16

O=C(N[C@H](CO)c1ccccc1)c1nn(-c2c[n+]([O-])ccn2)c2c1C[C@@H]1C[C@H]21 [Compound 913, (1aS,5aS)-2-(4-Oxy-pyrazin-2-yl)-1a,2,5,5a-tetrahydro-1H-2,3-diaza-cyclopropa[a]pentalene-4-carboxylic acid ((S)-2-hydroxy-1-phenyl-ethyl)-amide]
pEC50 [1, 3]: 6.98

O=C(NC1(C(F)(F)F)CCC1)c1nn(-c2cnccn2)c2c1C[C@@H]1C[C@H]21 [Compound 926, (1aS,5aS)-2-Pyrazin-2-yl-1a,2,5,5a-tetrahydro-1H-2,3-diaza-cyclopropa[a]pentalene-4-carboxylic acid (1-trifluoromethyl-cyclobutyl)-amide]
pEC50 [1]: 8.35 | pEC50 [2]: 9.70

CC(C)(CO)NC(=O)c1nn(-c2cnc(C#N)cn2)c2c1C[C@H]1C[C@@H]21 [Compound 264, (1aR,5aR)-2-(5-Cyano-pyrazin-2-yl)-1a,2,5,5a-tetrahydro-1H-2,3-diaza-cyclopropa[a]pentalene-4-carboxylic acid (2-hydroxy-1,1-dimethyl-ethyl)-amide]
pEC50 [2]: 8.00

CC(C)(CO)NC(=O)c1nn(-c2ccc(F)cn2)c2c1C[C@H]1C[C@@H]21 [Compound 309, (1aR,5aR)-2-(5-Fluoro-pyridin-2-yl)-1a,2,5,5a-tetrahydro-1H-2,3-diaza-cyclopropa[a]pentalene-4-carboxylic acid (2-hydroxy-1,1-dimethyl-ethyl)-amide]
pEC50 [1]: 6.87 | pEC50 [2]: 7.72

CC(C)(CO)NC(=O)c1nn(-c2cc(F)ccn2)c2c1C[C@H]1C[C@@H]21 [Compound 931, (1aR,5aR)-2-(4-Fluoro-pyridin-2-yl)-1a,2,5,5a-tetrahydro-1H-2,3-diaza-cyclopropa[a]pentalene-4-carboxylic acid (2-hydroxy-1,1-dimethyl-ethyl)-amide]
pEC50 [1]: 7.68

O=C(NC1(C(F)(F)F)CC1)c1nn(-c2cnccn2)c2c1C[C@@H]1C[C@H]21 [Compound 930, (1aS,5aS)-2-Pyrazin-2-yl-1a,2,5,5a-tetrahydro-1H-2,3-diaza-cyclopropa[a]pentalene-4-carboxylic acid (1-trifluoromethyl-cyclopropyl)-amide]
pEC50 [1]: 7.77

CC(C)(C)[C@@H](COP(=O)(O)O)NC(=O)c1nn(-c2cnccn2)c2c1C[C@H]1C[C@@H]21 [Compound 683, Phosphoric acid mono-{(S)-3,3-dimethyl-2-[((1aR,5aR)-2-pyrazin-2-yl-1a,2,5,5a-tetrahydro-1H-2,3-diaza-cyclopropa[a]pentalene-4-carbonyl)-amino]-butyl} ester]
pEC50 [1]: 5.52

CC(C)(C)NNC(=O)c1nn(-c2c[n+]([O-])ccn2)c2c1C[C@@H]1C[C@H]21 [Compound 902, (1aS,5aS)-2-(4-Oxy-pyrazin-2-yl)-1a,2,5,5a-tetrahydro-1H-2,3-diaza-cyclopropa[a]pentalene-4-carboxylic acid N′-tert-butyl-hydrazide]
pEC50 [1]: 7.11

CC(C)[C@@H](C)NC(=O)c1nn(-c2c[n+]([O-])ccn2)c2c1C[C@H]1C[C@@H]21 [Compound 828, (1aR,5aR)-2-(4-Oxy-pyrazin-2-yl)-1a,2,5,5a-tetrahydro-1H-2,3-diaza-cyclopropa[a]pentalene-4-carboxylic acid ((R)-1,2-dimethyl-propyl)-amide]
pEC50 [1]: 8.38

O=C(N[C@H]1c2ccccc2C[C@@H]1O)c1nn(-c2c[n+]([O-])ccn2)c2c1C[C@@H]1C[C@H]21 [Compound 920, (1aS,5aS)-2-(4-Oxy-pyrazin-2-yl)-1a,2,5,5a-tetrahydro-1H-2,3-diaza-cyclopropa[a]pentalene-4-carboxylic acid ((1S,2S)-2-hydroxy-indan-1-yl)-amide]
pEC50 [1]: 8.34

CC(C)(C)[C@H](NC(=O)c1nn(-c2c[n+]([O-])ccn2)c2c1C[C@@H]1C[C@H]21)c1ccccn1 [Compound 767, (1aS,5aS)-2-(4-Oxy-pyrazin-2-yl)-1a,2,5,5a-tetrahydro-1H-2,3-diaza-cyclopropa[a]pentalene-4-carboxylic acid ((S)-2,2-dimethyl-1-pyridin-2-yl-propyl)-amide]
pEC50 [1]: 7.18

CC(C)(CF)NC(=O)c1nn(-c2c[n+]([O-])ccn2)c2c1C[C@@H]1C[C@H]21 [Compound 904, (1aS,5aS)-2-(4-Oxy-pyrazin-2-yl)-1a,2,5,5a-tetrahydro-1H-2,3-diaza-cyclopropa[a]pentalene-4-carboxylic acid (2-fluoro-1,1-dimethyl-ethyl)-amide]
pEC50 [1]: 7.50

COC(=O)C(NC(=O)c1nn(-c2c[n+]([O-])ccn2)c2c1C[C@H]1C[C@@H]21)c1ccccn1 (stereo partly drawn) [Compound 711, {[(1aR,5aR)-2-(4-Oxy-pyrazin-2-yl)-1a,2,5,5a-tetrahydro-1H-2,3-diaza-cyclopropa[a]pentalene-4-carbonyl]-amino}-pyridin-2-yl-acetic acid methyl ester]
pEC50 [1]: 7.55

CNC(=O)[C@@H](NC(=O)c1nn(-c2c[n+]([O-])ccn2)c2c1C[C@H]1C[C@@H]21)c1ccccc1 [Compound 722, (1aR,5aR)-2-(4-Oxy-pyrazin-2-yl)-1a,2,5,5a-tetrahydro-1H-2,3-diaza-cyclopropa[a]pentalene-4-carboxylic acid ((S)-methylcarbamoyl-phenyl-methyl)-amide]
pEC50 [1]: 7.47

CC(C)[C@@H](CO)NC(=O)c1nn(-c2c[n+]([O-])ccn2)c2c1C[C@@H]1C[C@H]21 [Compound 896, (1aS,5aS)-2-(4-Oxy-pyrazin-2-yl)-1a,2,5,5a-tetrahydro-1H-2,3-diaza-cyclopropa[a]pentalene-4-carboxylic acid ((S)-1-hydroxymethyl-2-methyl-propyl)-amide]
pEC50 [1]: 7.36

CC(C)[C@@H](C)NC(=O)c1nn(-c2c[n+]([O-])ccn2)c2c1C[C@@H]1C[C@H]21 [Compound 912, (1aS,5aS)-2-(4-Oxy-pyrazin-2-yl)-1a,2,5,5a-tetrahydro-1H-2,3-diaza-cyclopropa[a]pentalene-4-carboxylic acid ((R)-1,2-dimethyl-propyl)-amide]
pEC50 [1]: 8.02

CC(C)(CO)NC(=O)c1nn(-c2ccc(F)cc2F)c2c1C1CC1C2 (centres unmarked) [Compound 515, 1-(2,4-Difluoro-phenyl)-3b,4,4a,5-tetrahydro-1H-cyclopropa[3,4]cyclopenta[1,2-c]pyrazole-3-carboxylic acid (2-hydroxy-1,1-dimethyl-ethyl)-amide]
pEC50 [2]: 8.36

CC(C)(COP(=O)(O)O)NC(=O)c1nn(-c2cc(C#N)ccn2)c2c1C[C@H]1C[C@@H]21 [Compound 646, Phosphoric acid mono-(2-{[(1aR,5aR)-2-(4-cyano-pyridin-2-yl)-1a,2,5,5a-tetrahydro-1H-2,3-diaza-cyclopropa[a]pentalene-4-carbonyl]-amino}-2-methyl-propyl) ester]
pEC50 [1]: 6.03

CC(C)(C)[C@@H](NC(=O)c1nn(-c2c[n+]([O-])ccn2)c2c1C[C@@H]1C[C@H]21)c1ccccn1 [Compound 766, (1aS,5aS)-2-(4-Oxy-pyrazin-2-yl)-1a,2,5,5a-tetrahydro-1H-2,3-diaza-cyclopropa[a]pentalene-4-carboxylic acid ((R)-2,2-dimethyl-1-pyridin-2-yl-propyl)-amide]
pEC50 [1]: 8.34

CC(C)[C@H](N)C(=O)OC[C@@H](NC(=O)c1nn(-c2c[n+]([O-])ccn2)c2c1C[C@@H]1C[C@H]21)C(C)(C)C [Compound 848, (1aS,5aS)—(S)-2-Amino-3-methyl-butyric acid (S)-3,3-dimethyl-2-{[2-(4-oxy-pyrazin-2-yl)-1a,2,5,5a-tetrahydro-1H-2,3-diaza-cyclopropa[a]pentalene-4-carbonyl]-amino}-butyl ester]
pEC50 [1]: 7.30

O=C(NC1(C(F)(F)F)CC1)c1nn(-c2c[n+]([O-])ccn2)c2c1C[C@@H]1C[C@H]21 [Compound 764, (1aS,5aS)-2-(4-Oxy-pyrazin-2-yl)-1a,2,5,5a-tetrahydro-1H-2,3-diaza-cyclopropa[a]pentalene-4-carboxylic acid (1-trifluoromethyl-cyclopropyl)-amide]
pEC50 [1, 3]: 8.23
